Literature values, collected in patent US5994374A, “Substituted 1-indolylpropyl-4-benzyl-tetrahydropyridine derivatives” (Merck Sharp & Dohme Ltd., priority 1995, dated 1999).

Test system: human 5-HT1Dα and 5-HT1Dβ receptor subtypes
Conditions: cf. WO-A-91/17174, Table 1

discrimination between the human 5-HT1Dα and 5-HT1Dβ receptor subtypes: barely discriminates
Structure (SMILES): CNS(=O)(=O)Cc1ccc2[nH]cc(CCN(C)C)c2c1 [sumatriptan]
